Marks after values point to notes of the source that are not given here. One block for each compound: values may come before it.
Tests used:
Format in all cases: in vivo, Spraque-Dawley rats
[1] = tested on: gastric mucosa; experiment: Study 6: arachidonic and linoleic acid mucosal protection against acetylsalicylic acid; conditions: for Macroscopic mucosal changes (lesion index, number of lesions x severity): 1 ml 120 mM AA or 240 mM LLC in PL 1 hour before 200 mg/kg aspirin intragastrically, 4 hours after acetyl salicylic acid; for Histologic evaluation: deep necrotic lesions / Mucosa by scanning electromicroscopy: 4 hours after aspirin, 120 mM AA or 240 mM LLC pretreatment
Procedure: (§1) The animals used in the examples were Spraque-Dawley rats (225 to 250 grams bodyweight). Twenty-four hours prior to the experimentation the animals were fasted in wire-bottomed cages to prevent coprophagy.
Rats were given intragastric treatment by peroral tube with 1 ml of PL solution, 1 ml of PL solution containing 120 mM arachidonic acid (AA), or 1 ml of PL solution containing 240 mM linoleic acid (LLC). One hour after such treatment a suspension of 200 mg/kg bodyweight of aspirin in 0.1 n HCI containing 1% methyl cellulose was administered intragastrically in 1 ml volume. The animals were sacrified 4 hours after acetyl salicylic acid administration.
• 1) Macroscopic quantitation of mucosal changes based on scoring system estimating presence or absence of hemorrhagic lesions, their number and severity graded on arbitrary scale 1 to 4. Lesion index, expressed as an average score (number of lesionsxseverity) was estimated per each group of animals. • 2) Mucosal histology • 3) Scanning electron microscopy

[2] = tested on: gastric mucosa; experiment: Study 5: arachidonic acid mucosal protection against taurocholic acid; conditions: 1 ml 120 mM AA in PL; 3 ml 80 mM TCA in 0.1 n HCl twice; 3 hours after second TCA dose
Procedure: as §1
Rats were given intragastric treatment by peroral tube with 1 ml of PL solution or 1 ml of PL solution containing 120 mM arachidonic acid (AA). The rats then received, intragastrically, 3 mls of a 80 mM solution of taurocholic acid (TCA) dissolved in 0.1 n in HCI, adminstered twice: one or two hours after PL or AA pretreatment. Animals were sacrificed 3 hours after second TCA administration.
Gastric mucosa was assessed macroscopically and histologically for damage in a similar manner as in studies with ethanol. […] These lesions corresponding histologically to necrotic lesions were similar to those seen after ethanol.

[3] = tested on: gastric mucosa; experiment: Histological studies of gastric mucosa (light microscopy)
Procedure: Mucosal specimens 5 mm in width were cut from the forestomach to the pylorus. The specimens were obtained (a) 60 minutes after intragastric administration of 1 ml of solution containing either saline, PL or 120 mM arachidonic acid or (b) 3 hours after intragastric instillation of 2 ml of ethanol in animals which had received 1 ml of solution containing either saline or PL or 120 mM arachidonic acid 1 hour before ethanol. Specimens were fixed in buffered 10% formalin and stained. Coded specimens were examined "blindly" by light microscopy. In the histological evaluation special attention was paid to the continuity of the surface epithelium layer, presence or absence of hemorrhagic erosions, edema of the submucosa and infiltration with polymorphonuclear neutrophils.

[4] = tested on: gastric mucosa; experiment: Scanning electron microscopy of gastric mucosa after ethanol; conditions: 3 hours after ethanol, arachidonic acid pretreated rats
Description: Gastric mucosal specmens, fixed in 3.5% buffered glutaraldehyde were processed routinely for scanning electronmicroscopy and evaluated in a JOEL-35 scanning electronmicroscope operated at 20 kV.

[5] = tested on: liver; experiment: Study 7: liver protection against ethanol, electron microscopy of hepatocytes; conditions: 1 ml 120 mM AA (37 mg) in PL by gavage 1 hour before 2.5 ml 100% ethanol; sacrificed 24 hours later
Procedure: 40 rats were given, by gavage, either 1 ml of 5 mM PL solution (as a control) or a 1 ml of 120 mM arachidonic acid in the 5 mM PL solution. One hour later the rats were given 2.5 ml of 100% ethanol and the animals sacrificed 24 hours later.
The liver was then removed and specimens fixed for 2 hours in 3.5% purified glutaraldehyde (buffered in 0.1 M phosphate of 7.4). The liver specimens were washed with buffer and postfixed in 1% osmium tetroxide at 0°C for 1 hour. After dehydration with graded ethanol the tissue was embedded in epoxy resin. Silver gray thin sections of the specimen were double stained with 2% uranyl acetate followed by lead citrate and examined with an RCA electron microscope.

[6] = tested on: gastric mucosa; experiment: Study 2: arachidonic acid mucosal protection 15 hours after ethanol, computerized analysis of hemorrhagic area; conditions: 1 ml 120 mM AA (37 mg) in PL intragastric 1 hour before 2 ml ethanol; evaluated 15 hours after ethanol; percent of total glandular mucosal area
Procedure: as §1
One ml of 120 mM arachidonic acid solution (37 mg arachidonic acid) or 5 mM PI solution was instilled into the stomach 1 hour prior to the intragastric administration of 2 ml ethanol. The animals were killed 15 hours after ethanol administration and their stomachs were examined.
A camera with 100 mm macro lens was used to photograph the mucosal surface of the stomach. The same type of film and identical conditions of specimen distance from the lens, light intensity and film development were used throughout the study. Color slides were evaluated by a computerized image analysis. Each slide was converted to a black-and-white video image consisting of 65,000 points. White represented normal gastric mucosa, while gray or black represented hemorrhagic changes. […] Absolute white was given a 255 value while absolute black was given a value of 0. Boundaries delineating the glandular mucosa were drawn on the digital video image with a sonic pen. All spatial and contrast information was stored on a magnetic disk. […] The areas of hemorrhagic changes were expressed as the percentage of the entire gastric glandular mucosal area.

[7] = tested on: PGE2; experiment: PGE2 measurement in gastric contents (radioimmunoassay, bioassay)
Procedure: PGE2 was measured by direct radioimmunoassay using antisera generated in rabbits by immunization of PGE2 linked to bovine thyroglobulin. For additional confirmation of PGE2 measurements, samples were also subjected to bioassay. After addition of approximately 5000 CPM of ^3H-labeled PGE2 for recovery calculations, samples were adjusted to pH 4.3 with 0.5 M phosphate buffer and extracted twice with ethyl acetate. The organic layer was subjected to thin layer chromatography (benzene:dioxane:acetic acid, 90:60:3), and the PGE2 fraction was extracted with methanol, dried and reconstituted in 0.9% NaCl for assay. A bioassay cascade (according to Vane) was used to assay simultaneously the samples in 2 aliquot sizes and on 3 rat stomach strips. The concentration of PGE2 in the gastric contents were measured in 2 groups of rats 30 or 60 minutes following intragastric installation of 1 ml of 120 mM arachidonic acid or 1 ml PL in order to determine the extent of arachidonic acid conversion to PGE2 by the gastric mucosa. The spontaneous release of PGE2 into the gastric lumen was assessed in animals receiving PL pretreatment only. In addition, PGE2 concentration in the original 120 mM arachidonic acid solution was measured before intragastric instillation.

[8] = tested on: gastric mucosa; experiment: Study 3: intragastric versus intrajejunal arachidonic acid, pylorus ligated, ethanol-induced gastric mucosal injury; conditions: 1 hour before 2 ml ethanol, evaluated 2 hours after ethanol
Procedure: as §1
The next series of experiments was designed to compare the effect of intragastric to intrajejunal pretreatment with arachidonic acid on ethanol-induced gastric mucosal injury. The animals were anesthetized with nembutal (50 mg nembutal per kg body weight intraperitoneally), their abdomens were opened and either 1 ml of 120 mM arachidonic acid or 5 mM PL was installed intragastrically or 1 ml of 120 mM arachidonic acid intrajejunally with a polyethylene catheter introduced through a small duodenal incision. The pylorus was ligated immediately after solution instillation. One hour later the gastric contents were removed and 2 ml of ethanol were instilled through the catheter. The stomach was examined 2 hours later.
A camera with 100 mm macro lens was used to photograph the mucosal surface of the stomach. The same type of film and identical conditions of specimen distance from the lens, light intensity and film development were used throughout the study. Color slides were evaluated by a computerized image analysis. […] The areas of hemorrhagic changes were expressed as the percentage of the entire gastric glandular mucosal area.

[9] = tested on: gastric mucosa; experiment: Study 1: arachidonic acid mucosal protection 3 hours after ethanol, computerized analysis of hemorrhagic area; conditions: percent of total glandular mucosal area
Procedure: as §1
Animals were given by gavage 1 ml of either saline, or 5 mM PL solution in saline, or 1 ml of the PL-saline solution containing arachidonic acid in 30, 60 and 120 mM concentrations respectively. One-half hour or 1 hour later, 2 ml of absolute ethanol were instilled into the stomach by gavage. Three hours later the animals were sacrificed and their stomachs removed.
A camera with 100 mm macro lens was used to photograph the mucosal surface of the stomach. The same type of film and identical conditions of specimen distance from the lens, light intensity and film development were used throughout the study. Color slides were evaluated by a computerized image analysis. Each slide was converted to a black-and-white video image consisting of 65,000 points. White represented normal gastric mucosa, while gray or black represented hemorrhagic changes. […] Absolute white was given a 255 value while absolute black was given a value of 0. Boundaries delineating the glandular mucosa were drawn on the digital video image with a sonic pen. All spatial and contrast information was stored on a magnetic disk. Each glandular mucosal area was classified interactively by slicing the spectrum of mucosal values into 2 or more subgroups and by displaying the resultant simplified digital image for verification with the more complex analog photographic input. Once a classification scheme was established, a spatial rendition of the picture's point was printed and plotted to scale on paper. A summary of the computer results was also printed and included boundary values for each gray-level slice and the absolute and relative areas of each class. The areas of hemorrhagic changes were expressed as the percentage of the entire gastric glandular mucosal area.

[10] = tested on: gastric mucosa; experiment: Study 4: linoleic acid mucosal protection against ethanol; conditions: 3 hours after ethanol
Procedure: Twenty-four hours prior to the experimentation the animals were fasted in wire-bottomed cages to prevent coprophagy.
The rats were given intragastric treatment by peroral tube 1 ml of PL solution; 1 ml of the PL solution containing 120 mM linoleic acid (LLC) or 240 mM LLC; or 1 ml of 240 mM oleic acid solubilized in 5 mM PL. […] Macroscopic and histologic mucosal changes were evaluated as in the studies with arachidonic acid.

[11] = histology 3 hours after 2 ml absolute ethanol, pretreated with 1 ml 120 mM AA+PL 1 hour before
[12] = 1 ml 240 mM in 5 mM PL intragastric pretreatment

Compound: CCCCC/C=C\C/C=C\C/C=C\C/C=C\CCCC(=O)O [AA, arachidonic acid]
Macroscopic mucosal changes (lesion index, number of lesions x severity) [1]: 2±0.3
Histologic evaluation: deep necrotic lesions [1]: deep necrotic lesions did not occur
Mucosa by scanning electromicroscopy [1]: nearly normal mucosa
mucosal lesions, macroscopically and histologically [2]: not detectable
Histological changes of gastric mucosa after the acid alone ([3]; 60 minutes after intragastric 1 ml 120 mM arachidonic acid, no ethanol): did not change the appearance of the gastric mucosa
Edema of submucosa accumulation of polymorphonuclears [3, 11]: Present
Hemorrhagic erosions [3, 11]: Absent
The surface epithelium layer [3, 11]: Present, continuous (minor focal defects seen occasionally)
Mucosal surface by scanning electronmicroscopy [4]: nondisrupted and normal appearance
ultrastructural changes in the hepatocytes [5]: most of the alcohol induced changes were virtually prevented
Hemorrhagic area*(%) [6]: 0.6%
values of PGE2 in the gastric content higher than in animals that received PL only ([7]; 30 and 60 minutes after intragastric instillation, relative to PL group): 5,000-13,000
PGE2 concentration (ng/ml) ([7]; gastric contents 30 min after intragastric instillation of 1 ml 120 mM AA): 7360.0* ng/ml
PGE2 concentration (ng/ml) ([7]; gastric contents 60 min after intragastric instillation of 1 ml 120 mM AA): 4100.0* ng/ml
Hemorrhagic area*(%) ([8]; 1 ml 120 mM AA intragastrically): 5.3%
Hemorrhagic area*(%) ([8]; 1 ml 120 mM AA intrajejunally): 28.1%
Hemorrhagic area*(%) ([9]; 1 ml 30 mM AA in 5 mM PL by gavage 1 hour before 2 ml ethanol, stomach evaluated 3 hours after ethanol): 15.4%
Hemorrhagic area*(%) ([9]; 1 ml 60 mM AA in 5 mM PL by gavage 1 hour before 2 ml ethanol, evaluated 3 hours after ethanol): 3.0%
Hemorrhagic area*(%) ([9]; 1 ml 120 mM AA in 5 mM PL by gavage 1 hour before 2 ml ethanol, evaluated 3 hours after ethanol): 0.6%
Hemorrhagic area*(%) ([9]; Group E: 1 ml 120 mM AA in 5 mM PL by gavage 30 minutes before 2 ml ethanol, evaluated 3 hours after ethanol): 0.8%

edema in the forestomach ([10]; macroscopic, group pretreated with linoleic acid): marked edema in the forestomach
Compound: CCCCC/C=C\C/C=C\CCCCCCCC(=O)O [LLC, linoleic acid]
Macroscopic mucosal changes (lesion index, number of lesions x severity) [1]: 8±1
Histologic evaluation: deep necrotic lesions [1]: deep necrotic lesions did not occur
Mucosa by scanning electromicroscopy [1]: nearly normal mucosa
macroscopic hemorrhagic lesions, % of glandular mucosal area ([10]; 1 ml 120 mM in 5 mM PL intragastric pretreatment): 6.5±1%
macroscopic hemorrhagic lesions, % of glandular mucosal area [10, 12]: 1.3±0.5%
Mucosal histology: deep necrotic lesions [10]: no deep necrotic lesions were present

Compound: CCCCCCCC/C=C\CCCCCCCC(=O)O [oleic acid, reference compound]
macroscopic hemorrhagic lesions, % of glandular mucosal area [10, 12]: 29.1±3%
Mucosal histology: deep necrotic lesions [10]: deep hemorrhagic necrotic lesions penetrating into muscularis mucosa were present

Source: patent EP0101294B1, “Composition for protecting and healing gastro-duodenal mucosa and the liver of mammals” (THE REGENTS OF THE UNIVERSITY OF CALIFORNIA, priority 1982, dated 1984)
